Data as given in article PMC2823959 (Analytical biochemistry, 2009).

Biological target: taurine/α-ketoglutarate dioxygenase (TauD) (Escherichia coli, UniProt P37610)
Experiment: UV difference absorption titration of apoprotein with global regression analysis
Format: binding

taurine/α-ketoglutarate dioxygenase (TauD), sequence (P37610 2-283): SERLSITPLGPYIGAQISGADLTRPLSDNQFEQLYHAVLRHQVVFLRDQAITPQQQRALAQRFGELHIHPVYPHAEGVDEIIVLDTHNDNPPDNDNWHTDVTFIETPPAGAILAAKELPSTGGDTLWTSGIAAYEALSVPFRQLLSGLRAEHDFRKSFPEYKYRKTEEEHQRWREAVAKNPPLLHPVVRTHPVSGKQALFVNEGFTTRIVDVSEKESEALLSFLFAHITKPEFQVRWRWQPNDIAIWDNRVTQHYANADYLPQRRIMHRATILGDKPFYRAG

- Kd: 175 ± 10 µM
SMILES: NCCS(=O)(=O)O [taurine]
